Experimental findings from the Deep4Chem optical property database are described below.

A short description of the data set: photoluminescence quantum yield (fraction); solvent given as SMILES.

Take `NS(=O)(=O)c1ccc(N2N=C(c3ccc(O)cc3)CC2c2ccc(Br)cc2)cc1` (stereo not given): the photoluminescence quantum yield was 0.7 (in C1CCOC1); 0.75 (in C1COCCO1); 0.65 (in CC#N); 0.57 (in CC(C)O); 0.5 (in CCO); 0.75 (in CCOC(C)=O). Moreover, the photoluminescence quantum yield (in CN(C)C=O) was 0.68, the photoluminescence quantum yield (in CO) was 0.38, the photoluminescence quantum yield (in CS(C)=O) worked out at 0.69 and the photoluminescence quantum yield (in O) amounted to 0.56.

Consider `CC1=C2C=CC(C)=[N+]2[B-](F)(F)n2cccc21`, for which the photoluminescence quantum yield (in CCCCCC) is 0.96, the photoluminescence quantum yield (in CO) worked out at 1 and the photoluminescence quantum yield (in ClCCl) is 0.89.

`Cc1cc(-c2ccc(-c3n(C)c4ccccc4[n+]3C)cc2)ccc1-c1ccc(-c2n(C)c3ccccc3[n+]2C)cc1` registered a photoluminescence quantum yield (in O) of 0.65.

As for `CC1(C)c2ccccc2N(c2ccc(C(=CC#N)c3ccc(N4c5ccccc5C(C)(C)c5ccccc54)cc3)cc2)c2ccccc21`, the photoluminescence quantum yield (in Cc1ccccc1) is 0.313.

For `CC(C)(C)c1ccc2c(c1)Sc1cc(C(C)(C)C)ccc1N2c1ccc2c(ccc3nc4ccc5cc(N6c7ccc(C(C)(C)C)cc7Sc7cc(C(C)(C)C)ccc76)ccc5c4nc32)c1`, the photoluminescence quantum yield runs as follows: (in C1CCCCC1) 0.11; (in Cc1ccccc1) 0.04.

Consider `BrCCCCCCCCCCCCOc1cc2ccc3cccc4ccc(c1)c2c34`, for which the photoluminescence quantum yield (in Cc1ccccc1) was found to be 0.59.

`N#Cc1ccc(C#Cc2ccccc2C#N)cc1` registered a photoluminescence quantum yield (in ClC(Cl)Cl) of 0.452.

For the molecule `[O-][n+]1c(/C=C/c2ccc3ccccc3c2)nc(N2CCOCC2)c2c1CCCC2`, the photoluminescence quantum yield (in ClCCl) worked out at 0.05.

In turn, `CCCCCCCCCCOc1ccc(C#Cc2cc3c(C#Cc4ccc(OCCCCCCCCCC)cc4)c(C#Cc4ccc(OCCCCCCCCCC)cc4)c4cc(C#Cc5ccc(OCCCCCCCCCC)cc5)cc5c(C#Cc6ccc(OCCCCCCCCCC)cc6)c(C#Cc6ccc(OCCCCCCCCCC)cc6)c(c2)c3c45)cc1` yielded a photoluminescence quantum yield (in ClCCl) of 0.44.

Molecule `CC(C)(C)c1ccc(-c2c(-c3ccc(N(c4ccccc4)c4ccccc4)cc3)c(C#N)c(-c3ccc(N(c4ccccc4)c4ccccc4)cc3)c(-c3ccc(C(C)(C)C)cc3)c2-c2ccc(C(C)(C)C)cc2)cc1` showed a photoluminescence quantum yield (in C1CCOC1) of 0.686.

`F[B-]1(F)n2cccc2C(c2ccccc2)=C2C=CC(c3ccc(OC4=[N+]5C(=C(c6ccccc6)c6cc(Br)c(Br)n6[B-]5(F)F)C=C4Br)cc3)=[N+]21` gave a photoluminescence quantum yield (in ClC(Cl)Cl) of 0.01.

The molecule `O=C(c1ccncc1)c1ccc(-n2c3ccccc3c3cc(-n4c5ccccc5c5ccccc54)ccc32)cc1` showed a photoluminescence quantum yield (in Cc1ccccc1) of 0.178 and a photoluminescence quantum yield (in c1cc(-c2cccc(-n3c4ccccc4c4ccccc43)c2)cc(-n2c3ccccc3c3ccccc32)c1) of 0.72.

On to `CCC12C(=C3C(=C4c5ccc(-c6ccc(C(C)=O)cc6)cc5S(=O)(=O)C41CC)C(F)(F)C(F)(F)C3(F)F)c1ccc(-c3ccc(C(C)=O)cc3)cc1S2(=O)=O` (stereo not given), for which, where the note is “in C1COCCO1”, the photoluminescence quantum yield was found to be 0.87.

`CC(C)(C)c1ccc2c(c1)c1cc(C(C)(C)C)cc3c1n2B1c2c-3cccc2-c2cc(C(C)(C)C)cc3c4cc(C(C)(C)C)ccc4n1c23` showed a photoluminescence quantum yield (in C1CCOC1) of 0.63.

In turn, `COc1ccc2cc(/C=C/C3=[O+][B-](F)(F)OC(/C=C/c4ccc5cc(OC)ccc5c4)=C3c3ccccc3)ccc2c1` gave a photoluminescence quantum yield (in ClCCl) of 0.51.

Consider `CN(C)c1ccc(/C=C/c2ccc([N+](=O)[O-])c(O)c2)cc1`, for which the photoluminescence quantum yield runs as follows: (in C1CCCCC1) 0.11; (in C1COCCO1) 0.02; (in CCCCCCC) 0.09; (in Cc1ccccc1) 0.09.

Regarding `COc1cc2c(cc1OC)C1=C[C@H](c3ccc(Cl)cc3)C3(C(C#N)=C(C#N)N1CC2)c1cc(Br)ccc1-c1ccc(Br)cc13`, for the setting “in ClCCl”, the photoluminescence quantum yield amounted to 0.00019.

Consider `C[n+]1ccc(/C=C/c2ccc(N(c3ccccc3)c3ccc(/C=C/c4cc[n+](C)cn4)cc3)cc2)nc1`, for which the photoluminescence quantum yield (in OCC(O)CO) was 0.026.

With `Oc1cc(-c2ccco2)ccc1-c1nc2ccccc2s1`, the photoluminescence quantum yield reads like this: (in CCO) 0.137; (in ClCCl) 0.0812; (in O) 0.1.

On to `COc1ccc(C2=C3C=CC(C)=[N+]3[B-](F)(F)n3c(C)ccc32)cc1`, for which the photoluminescence quantum yield by setting is: (in C1CCCCC1) 0.42; (in C1CCOC1) 0.36; (in CC#N) 0.21; (in CCOC(C)=O) 0.3; (in CO) 0.25; (in Cc1ccccc1) 0.52. For the same molecule, for the setting “in ClC(Cl)Cl”, the photoluminescence quantum yield stood at 0.46.

For the setting “in CS(C)=O”, `Cc1ccc(N/C=C/C=[NH+]c2ccc(C)cc2)cc1` gave a photoluminescence quantum yield of 0.14.

Under “in CC#N”, `Cc1cc(C)c2nc3c(=O)[nH]c(=O)[nH]c3nc2c1` came in with a photoluminescence quantum yield of 0.02.

For `CCCCCCCCCCCCN1C(=O)c2c(c3ccc4cc(-c5ccc(C=O)cc5)c(OC)cc4c3c3c2ccc2cc(-c4ccc(C=O)cc4)c(OC)cc23)C1=O`, the photoluminescence quantum yield (in ClCCl) worked out at 0.157.

The molecule `C[Si](C)(C)C#CC#Cc1ccc2c3cccc4cccc(c5cccc1c52)c43` returned a photoluminescence quantum yield (in C1CCCCC1) of 0.51.

`CCCCCOc1cc2oc(=O)c3c4ccc(O)cc4c4ccc5cccc6c(c1)c2c3c4c56`: the photoluminescence quantum yield (in C1CCOC1) is 0.27.

Where the note is “in C1CCOC1”, `N#Cc1c(N2CCCCC2)cc(-c2ccc(-c3ccccc3)cc2)c2c1CCc1ccccc1-2` returned a photoluminescence quantum yield of 0.38.

Under “in CCCCCCC”, `c1ccc2c3c(ccc2c1)-c1cc2ccccc2c2cccc-3c12` showed a photoluminescence quantum yield of 0.1.

Take `CCC1=C(C)C2=Cc3c4ccccc4c4n3[B-](c3ccncc3)(Oc3ccccc3-4)[N+]2=C1C` (stereo not given): the photoluminescence quantum yield reads like this: (in CC#N) 0.73; (in CCCCCC) 0.78; (in Cc1ccccc1) 0.7; (in ClCCl) 0.7.

With `CC1=CC(c2ccc(N(C)C)cc2)=[N+]2C1=Nc1c(C)cc(-c3ccc(N(C)C)cc3)n1[B-]2(F)F`, the photoluminescence quantum yield runs as follows: (in C1CCOC1) 0.13; (in CS(C)=O) 0.01; (in Cc1ccccc1) 0.21.

`C=Cc1ccc(OC)c(OC)c1`: the photoluminescence quantum yield runs as follows: (in C1CCCCC1) 0.32; (in CC#N) 0.29.

`N#Cc1ccc(-n2nc(C#N)c(N3CCCC3)n2)cc1`: the photoluminescence quantum yield (in CC#N) was found to be 0.579.

As for `Oc1cc(-c2cccs2)ccc1-c1nc2ccccc2s1`, the photoluminescence quantum yield stood at 0.1 (in CCO), 0.0937 (in ClCCl) and 0.01 (in O).

On to `O=CC1=C(c2ccc(-c3cccs3)s2)CCC1`, for which the photoluminescence quantum yield (in CCO) was 0.02.

`CNc1ncc2nc(C#N)n(Cc3ccccc3)c2n1`: the photoluminescence quantum yield was 0.61 (in C1COCCO1), 0.58 (in CC#N), 0.49 (in CO) and 0.58 (in ClCCl).

Regarding `COc1ccc2oc(-c3cc4cc(OC)ccc4oc3=O)cc2c1`, where the note is “in CS(C)=O”, the photoluminescence quantum yield was 0.16.

On to `CCN1c2ccc(/C=N/Nc3ccccn3)cc2Sc2cc(-c3ccc(OC)cc3)ccc21`, for which the photoluminescence quantum yield runs as follows: (in C1CCOC1) 0.32; (in CS(C)=O) 0.55; (in Cc1ccccc1) 0.16; (in ClCCl) 0.38.

`c1ccc(-c2ncc3ccccn23)cc1` returned a photoluminescence quantum yield (in ClC(Cl)Cl) of 0.05.
